For assay [1], the target named is Histone deacetylase. The assay is described as follows: Concentration required to inhibit human Histone deacetylase (HDAC) enzyme by 50%. The format is protein assay.
In another assay the test system is T-24. In words: Concentration required to inhibit the bladder T24 cell growth by 50%,P53 status of cell line used was mutant. Particulars: Homo sapiens.
Assay [2] addresses Histone deacetylase. The assay is described as follows: Induction of p21 using Histone deacetylase inhibitors. The format is protein assay, Homo sapiens.
For a further assay, the system named is A549. In words: Concentration required to inhibit the lung A549 cell growth by 50%,P53 status of cell line used was wild-type. The class given is functional, cell-based. Particulars: Homo sapiens.
Assay [3] can be described thus: Concentration required to inhibit the breast MDA-MB-435S cell growth by 50%,P53 status of cell line used was mutant-type. Particulars: Homo sapiens. The class given is functional.
Assay [4] relates to HCT-116. In words: Concentration required to inhibit the HCT116 cell growth by 50%. The class given is functional, cell-based. Particulars: Homo sapiens.
Assay [5] deals with Histone deacetylase. In words: Concentration required to inhibit the partially purified HDAC enzyme by 50% obtained from H1299 cell lysate. The class given is functional, cell-based, Homo sapiens.
A further assay deals with A-431. In words: Concentration required to inhibit the epidermoid A431 cell growth by 50%, P53 status of cell line used was mutant. Particulars: Homo sapiens.
The test system of another assay is SW-620. The assay is described as follows: Concentration required to inhibit the colon SW 620 cell growth by 50%,P53 status of cell line used was mutant-type. The format is functional, cell-based. Particulars: Homo sapiens.
Another assay relates to NCI-H1299. In words: Concentration required to inhibit the lung H1299 cell growth by 50%,P53 status of cell line used was deleted. Particulars: Homo sapiens.
Assay [6] deals with HCT-116. The assay is described as follows: Concentration required to inhibit the colon HCT116 cell growth by 50%,P53 status of cell line used was wild-type. Particulars: Homo sapiens. The format is functional, cell-based.
For the next assay, the system named is LS174T. The assay is described as follows: Concentration required to inhibit the colon LS 174T cell growth by 50%,P53 status of cell line used was […]. The format is functional, cell-based. Particulars: Homo sapiens.

The structures appear in SMILES notation. Square brackets hold non-standard residues; d marks the D form. Peptide text beside a SMILES is read from it. Aoe = N[C@@H](CCCCCC(=O)[C@@H]1CO1)C(=O)O

One may read the IC50 as the concentration needed to halve the response being measured. A lower IC50 goes with greater potency in that assay. What is called AC50 is the concentration at which the activity in the assay is half-maximal. Regarding `CN(C)c1ccc(C(=O)NCCCCCCC(=O)NO)cc1`, the IC50 stood at 46 nM against Histone deacetylase [1]; 3800 nM in the assay on T-24; 800 nM in the assay on A549; 1300 nM in [3]; 210 nM with HCT-116 [4]; 1620 nM against Histone deacetylase [5]. For the same molecule, the 50% inhibitory concentration (IC50) in the assay on A-431 was determined as 2300 nM; in the assay on SW-620 it was 700 nM; with NCI-H1299, 3900 nM; in the assay with HCT-116 [6], 200 nM; in the assay on LS174T, 1500 nM. The AC50 on Histone deacetylase [2] came to 2100 nM.
On Histone deacetylase [1], `CN(CCCCCC(=O)NO)C(=O)c1ccc(N(C)C)cc1` displayed an IC50 of 443 nM. On Histone deacetylase [2], this molecule gave a concentration at half-maximal activity (AC50) greater than 10000 nM.
For `NNC(=O)CCCCCNC(=O)c1ccccc1`, in that order: greater than 10000 nM and greater than 10000 nM.
`O=C(CCCCCNC(=O)c1ccc(Cl)cc1)NO`: the half-maximal inhibitory concentration (IC50) against Histone deacetylase [1] was 369 nM. This molecule also showed an AC50 on Histone deacetylase [2] greater than 10000 nM.
The molecule `O=C1N[C@@H](Cc2ccccc2)C(=O)N2CCC[C@@H]2C(=O)N[C@@H](CCCCCC(=O)[C@@H]2CO2)C(=O)N[C@H]1Cc1ccccc1` [TRAPOXIN B] (cyclo(FF[dP][Aoe])) had a half-maximal inhibitory concentration (IC50) with HCT-116 [4] of 2 nM.
In the case of `CN(C)c1ccc(C(=O)NCCCCCCCC(=O)NO)cc1`, the IC50 against Histone deacetylase [1] turned out to be 145 nM; with HCT-116 [4] it was 500 nM; against Histone deacetylase [5], 2180 nM. Moreover, the AC50 at Histone deacetylase [2] stood at 1600 nM.
Consider `O=C(CCCCCNC(=O)c1ccc([N+](=O)[O-])cc1)NO`, for which the IC50 against Histone deacetylase [1] amounted to 1556 nM. Moreover, on Histone deacetylase [2], the AC50 was greater than 10000 nM.
As to `O=C(CCCCCNC(=O)c1ccc(OCc2ccccc2)cc1)NO`, the IC50 on Histone deacetylase [1] was found to be 220 nM. The molecule also showed an AC50 on Histone deacetylase [2] greater than 10000 nM.
With `COc1ccc(NC(=O)CCCCCCC(=O)NO)cc1`, the 50% inhibitory concentration (IC50) is 279 nM at Histone deacetylase [1], greater than 10000 nM in the assay on HCT-116 [4] and greater than 10000 nM against Histone deacetylase [5]. On Histone deacetylase [2], the concentration at half-maximal activity (AC50) was 2400 nM.
With `O=C(CCCCCNC(=O)c1ccc(-c2ccccc2)cc1)NO`, on Histone deacetylase [1], the concentration for half-maximal inhibition (IC50) is 265 nM. At Histone deacetylase [2], this molecule showed an AC50 greater than 10000 nM.
The like results for `CN(C)c1ccc(C(=O)NCCCCC(=O)NO)cc1` were, in that order, greater than 10000 nM and greater than 10000 nM.
Consider `O=C(CCCCCCNC(=O)c1ccccc1)NO`, for which the IC50 was 568 nM on Histone deacetylase [1], 1040 nM in the assay on HCT-116 [4] and greater than 10000 nM at Histone deacetylase [5]. At Histone deacetylase [2], this molecule had a concentration at half-maximal activity (AC50) of 5700 nM.
For `O=C(CCCCCN1C(=O)c2ccccc2C1=O)NO`, on Histone deacetylase [1], the IC50 is 515 nM. The molecule also showed an AC50 at Histone deacetylase [2] of 7500 nM.
Consider `O=C(CCCCCCC(=O)Nc1ccncc1)NO`, for which the IC50 against Histone deacetylase [1] is 306 nM; with HCT-116 [4], 5400 nM; on Histone deacetylase [5], greater than 10000 nM. This molecule returned an AC50 on Histone deacetylase [2] of 8900 nM.
For `O=C(O)CCCCCCC(=O)c1ccccc1`, in that order: 270 nM, 1720 nM, greater than 10000 nM and 4100 nM.
In the assay with HCT-116 [4], `O=C(CCCCCCC(=O)Nc1cccnc1)NO` [PYROXAMIDE] gave an IC50 of 6500 nM.
Still for that read-out and setting: the same measure for `CC(/C=C/C(=O)NO)=C\[C@@H](C)C(=O)c1ccc(N(C)C)cc1` [TRICHOSTATIN]: 13 nM.
For the molecule `CONC(=O)CCCCCNC(=O)c1ccccc1`, the half-inhibitory concentration (IC50) against Histone deacetylase [1] was greater than 10000 nM. At Histone deacetylase [2], this molecule came in with a concentration at half-maximal activity (AC50) greater than 10000 nM.
For the molecule `O=C(CCCCCCC(=O)Nc1ccccn1)NO`, half-maximal inhibition in the assay with HCT-116 [4] (IC50) was put at 2000 nM.
